Source: paper PMC11277489, “Novel Piperazine Derivatives of Vindoline as Anticancer Agents” (International Journal of Molecular Sciences, 2024)

Assays:
EKVX = assay: NCI60 one-dose screen (10 μM), Non-small Cell Lung Cancer; assay type: cell-based; conditions: Homo sapiens, 10 μM, Non-small Cell Lung Cancer, read-out: Growth percent rate
SW-620 = assay: NCI60 one-dose screen (10 μM), Colon Cancer; assay type: cell-based; conditions: Homo sapiens; 10 μM; SW-620, Colon Cancer; read-out: Growth percent rate
[1] = tested on: 60 human tumor cell lines (NCI60); assay: NCI60 one-dose screen (10 μM), whole panel; assay type: cell-based; conditions: for antiproliferative effect (in words): 10 μM one-dose, NCI60; for activity at 10 µM: mean over 60 human cancer cell lines, read-out: Growth percent rate, Mean
MALME-3M = assay: NCI60 one-dose screen (10 μM), Melanoma; assay type: cell-based; conditions: Homo sapiens; 10 μM; MALME-3M, Melanoma; read-out: Growth percent rate
NCI-H23 = assay: NCI60 one-dose screen (10 μM), Non-small Cell Lung Cancer; assay type: cell-based; conditions: Homo sapiens; 10 μM; NCI-H23, Non-small Cell Lung Cancer; read-out: Growth percent rate
HCC-2998 = assay: NCI60 one-dose screen (10 μM), Colon Cancer; assay type: cell-based; conditions: Homo sapiens; 10 μM; HCC-2998, Colon Cancer; read-out: Growth percent rate
SF-268 = assay: NCI60 one-dose screen (10 μM), CNS Cancer; assay type: cell-based; conditions: Homo sapiens; 10 μM; SF-268, CNS Cancer; read-out: Growth percent rate
SF-539 = assay: NCI60 one-dose screen (10 μM), CNS Cancer; assay type: cell-based, human; conditions: Homo sapiens; 10 μM; SF-539, CNS Cancer; read-out: Growth percent rate
OVCAR-8 = assay: NCI60 one-dose screen (10 μM), Ovarian Cancer; assay type: cell-based; conditions: Homo sapiens; 10 μM; OVCAR-8, Ovarian Cancer; read-out: Growth percent rate
SK-MEL-5 = assay: NCI60 one-dose screen (10 μM), Melanoma; assay type: cell-based, human; conditions: Homo sapiens; 10 μM; SK-MEL-5, Melanoma; read-out: Growth percent rate
LOX IMVI = assay: NCI60 one-dose screen (10 μM), Melanoma; assay type: cell-based, human; conditions: Homo sapiens; 10 μM; LOX IMVI, Melanoma; read-out: Growth percent rate
SNB-19 = assay: NCI60 one-dose screen (10 μM), CNS Cancer; assay type: cell-based; conditions: Homo sapiens; 10 μM; SNB-19, CNS Cancer; read-out: Growth percent rate
HS 578T = assay: NCI60 one-dose screen (10 μM), Breast Cancer; assay type: cell-based; conditions: Homo sapiens; 10 μM; HS 578T, Breast Cancer; read-out: Growth percent rate
SK-MEL-28 = assay: NCI60 one-dose screen (10 μM), Melanoma; assay type: cell-based; conditions: Homo sapiens; 10 μM; SK-MEL-28, Melanoma; read-out: Growth percent rate
CAKI-1 = assay: NCI60 one-dose screen (10 μM), Renal Cancer; assay type: cell-based; conditions: Homo sapiens; 10 μM; CAKI-1, Renal Cancer; read-out: Growth percent rate
SN12C = assay: NCI60 one-dose screen (10 μM), Renal Cancer; assay type: cell-based; conditions: Homo sapiens, 10 μM, Renal Cancer, read-out: Growth percent rate
MDA-MB-435 = assay: NCI60 one-dose screen (10 μM), Melanoma; assay type: cell-based; conditions: Homo sapiens; 10 μM; MDA-MB-435, Melanoma; read-out: Growth percent rate
NCI-H322M = assay: NCI60 one-dose screen (10 μM), Non-small Cell Lung Cancer; assay type: cell-based; conditions: Homo sapiens, 10 μM, Non-small Cell Lung Cancer, read-out: Growth percent rate
HCT-116 = assay: NCI60 one-dose screen (10 μM), Colon Cancer; assay type: cell-based; conditions: Homo sapiens; 10 μM; HCT-116, Colon Cancer; read-out: Growth percent rate
UACC-257 = assay: NCI60 one-dose screen (10 μM), Melanoma; assay type: cell-based; conditions: Homo sapiens; 10 μM; UACC-257, Melanoma; read-out: Growth percent rate
ACHN = assay: NCI60 one-dose screen (10 μM), Renal Cancer; assay type: cell-based; conditions: Homo sapiens, 10 μM, Renal Cancer, read-out: Growth percent rate
OVCAR-4 = assay: NCI60 one-dose screen (10 μM), Ovarian Cancer; assay type: cell-based; conditions: Homo sapiens; 10 μM; OVCAR-4, Ovarian Cancer; read-out: Growth percent rate
786–0 = assay: NCI60 one-dose screen (10 μM), Renal Cancer; assay type: cell-based; conditions: Homo sapiens; 10 μM; 786-0, Renal Cancer; read-out: Growth percent rate
A498 = assay: NCI60 one-dose screen (10 μM), Renal Cancer; assay type: cell-based; conditions: Homo sapiens; 10 μM; A498, Renal Cancer; read-out: Growth percent rate
M14 = assay: NCI60 one-dose screen (10 μM), Melanoma; assay type: cell-based; conditions: Homo sapiens; 10 μM; M14, Melanoma; read-out: Growth percent rate
HL-60(TB) = assay: NCI60 one-dose screen (10 μM), Leukemia; assay type: cell-based; conditions: Homo sapiens; 10 μM; HL-60(TB), Leukemia; read-out: Growth percent rate
MOLT-4 = assay: NCI60 one-dose screen (10 μM), Leukemia; assay type: cell-based, human; conditions: Homo sapiens; 10 μM; MOLT-4, Leukemia; read-out: Growth percent rate
SF-295 = assay: NCI60 one-dose screen (10 μM), CNS Cancer; assay type: cell-based; conditions: Homo sapiens; 10 μM; SF-295, CNS Cancer; read-out: Growth percent rate
HOP-62 = assay: NCI60 one-dose screen (10 μM), Non-small Cell Lung Cancer; assay type: cell-based; conditions: Homo sapiens; 10 μM; HOP-62, Non-small Cell Lung Cancer; read-out: Growth percent rate
RPMI-8226 = assay: NCI60 one-dose screen (10 μM), Leukemia; assay type: cell-based; conditions: Homo sapiens; 10 μM; RPMI-8226, Leukemia; read-out: Growth percent rate
MCF7 = assay: NCI60 one-dose screen (10 μM), Breast Cancer; assay type: cell-based; conditions: Homo sapiens; 10 μM; MCF7, Breast Cancer; read-out: Growth percent rate
NCI-H460 = assay: NCI60 one-dose screen (10 μM), Non-small Cell Lung Cancer; assay type: cell-based; conditions: Homo sapiens; 10 μM; NCI-H460, Non-small Cell Lung Cancer; read-out: Growth percent rate
HT29 = assay: NCI60 one-dose screen (10 μM), Colon Cancer; assay type: cell-based; conditions: Homo sapiens, HT-29; 10 μM; HT29, Colon Cancer; read-out: Growth percent rate
IGROV1 = assay: NCI60 one-dose screen (10 μM), Ovarian Cancer; assay type: cell-based; conditions: Homo sapiens, IGROV-1; 10 μM; IGROV1, Ovarian Cancer; read-out: Growth percent rate
U251 = assay: NCI60 one-dose screen (10 μM), CNS Cancer; assay type: cell-based; conditions: Homo sapiens, U-251; 10 μM; U251, CNS Cancer; read-out: Growth percent rate
COLO 205 = assay: NCI60 one-dose screen (10 μM), Colon Cancer; assay type: cell-based, human; conditions: Homo sapiens; 10 μM; COLO 205, Colon Cancer; read-out: Growth percent rate
HCT-15 = assay: NCI60 one-dose screen (10 μM), Colon Cancer; assay type: cell-based; conditions: Homo sapiens; 10 μM; HCT-15, Colon Cancer; read-out: Growth percent rate
TK-10 = assay: NCI60 one-dose screen (10 μM), Renal Cancer; assay type: cell-based; conditions: Homo sapiens; 10 μM; TK-10, Renal Cancer; read-out: Growth percent rate
K-562 = assay: NCI60 one-dose screen (10 μM), Leukemia; assay type: cell-based; conditions: Homo sapiens, K562; 10 μM; K-562, Leukemia; read-out: Growth percent rate
RXF 393 = assay: NCI60 one-dose screen (10 μM), Renal Cancer; assay type: cell-based, human; conditions: Homo sapiens; 10 μM; RXF 393, Renal Cancer; read-out: Growth percent rate
A549/ATCC = assay: NCI60 one-dose screen (10 μM), Non-small Cell Lung Cancer; assay type: cell-based; conditions: Homo sapiens; 10 μM; A549/ATCC, Non-small Cell Lung Cancer; read-out: Growth percent rate
NCI-H522 = assay: as above; assay type: cell-based; conditions: Homo sapiens; 10 μM; NCI-H522, Non-small Cell Lung Cancer; read-out: Growth percent rate

CCC12C=CCN3CCC4(c5ccc(OC)cc5N(C)C4C(O)(C(=O)OC)C1OC(=O)CCCBr)C32 (centres unmarked) [Compound 14, 17-(O-4-bromobutanoyl)vindoline]
activity at 10 µM (EKVX): 91.2%
activity at 10 µM (SW-620): 100%
antiproliferative effect (in words) [1]: a notable antiproliferative effect was not shown
activity at 10 µM [1]: 92.5%
activity at 10 µM (MALME-3M): 101%
activity at 10 µM (NCI-H23): 93.1%
activity at 10 µM (HCC-2998): 93.8%
activity at 10 µM (SF-268): 83.2%
activity at 10 µM (SF-539): 91.9%
activity at 10 µM (OVCAR-8): 93.4%
activity at 10 µM (SK-MEL-5): 84.3%
activity at 10 µM (LOX IMVI): 88.6%
activity at 10 µM (SNB-19): 89.3%
activity at 10 µM (HS 578T): 94.5%
activity at 10 µM (SK-MEL-28): 105%
activity at 10 µM (CAKI-1): 80.9%
activity at 10 µM (SN12C): 97.4%
activity at 10 µM (MDA-MB-435): 104%
activity at 10 µM (NCI-H322M): 101%
activity at 10 µM (HCT-116): 87%
activity at 10 µM (UACC-257): 88.4%
activity at 10 µM (ACHN): 99.8%
activity at 10 µM (OVCAR-4): 83.9%
activity at 10 µM (786–0): 94.3%
activity at 10 µM (A498): 90.1%
activity at 10 µM (M14): 95.7%
activity at 10 µM (HL-60(TB)): 90.5%
activity at 10 µM (MOLT-4): 76.1%
activity at 10 µM (SF-295): 86.9%
activity at 10 µM (HOP-62): 101%
activity at 10 µM (RPMI-8226): 91.4%
activity at 10 µM (MCF7): 80.3%
activity at 10 µM (NCI-H460): 97.8%
activity at 10 µM (HT29): 94.1%
activity at 10 µM (IGROV1): 100%
activity at 10 µM (U251): 87.2%
activity at 10 µM (COLO 205): 101%
activity at 10 µM (HCT-15): 96.8%
activity at 10 µM (TK-10): 100%
activity at 10 µM (K-562): 79.7%
activity at 10 µM (RXF 393): 99.5%
activity at 10 µM (A549/ATCC): 89.4%
activity at 10 µM (NCI-H522): 79%

CCC12C=CCN3CCC4(c5ccc(OC)cc5N(C)C4C(O)(C(=O)OC)C1OC(=O)CCC(=O)O)C32 (centres unmarked) [Compound 15, 17-(O-3-carboxypropanoyl)vindoline]
activity at 10 µM (EKVX): 87.4%
activity at 10 µM (SW-620): 102%
antiproliferative effect (in words) [1]: a notable antiproliferative effect was not shown
activity at 10 µM [1]: 91.7%
activity at 10 µM (MALME-3M): 90.3%
activity at 10 µM (NCI-H23): 92.5%
activity at 10 µM (HCC-2998): 71%
activity at 10 µM (SF-268): 87.2%
activity at 10 µM (SF-539): 92.9%
activity at 10 µM (OVCAR-8): 91.8%
activity at 10 µM (SK-MEL-5): 96.8%
activity at 10 µM (LOX IMVI): 107%
activity at 10 µM (SNB-19): 94.9%
activity at 10 µM (HS 578T): 69.3%
activity at 10 µM (SK-MEL-28): 86.7%
activity at 10 µM (CAKI-1): 95.5%
activity at 10 µM (SN12C): 92.9%
activity at 10 µM (MDA-MB-435): 110%
activity at 10 µM (NCI-H322M): 73.9%
activity at 10 µM (HCT-116): 98.6%
activity at 10 µM (UACC-257): 91.5%
activity at 10 µM (ACHN): 102%
activity at 10 µM (OVCAR-4): 80.2%
activity at 10 µM (786–0): 98.1%
activity at 10 µM (A498): 90.6%
activity at 10 µM (M14): 96.5%
activity at 10 µM (HL-60(TB)): 114%
activity at 10 µM (MOLT-4): 106%
activity at 10 µM (SF-295): 113%
activity at 10 µM (HOP-62): 102%
activity at 10 µM (RPMI-8226): 84.2%
activity at 10 µM (MCF7): 68.2%
activity at 10 µM (NCI-H460): 97.4%
activity at 10 µM (HT29): 89.9%
activity at 10 µM (IGROV1): 90%
activity at 10 µM (U251): 105%
activity at 10 µM (COLO 205): 93.6%
activity at 10 µM (HCT-15): 98.4%
activity at 10 µM (TK-10): 90.8%
activity at 10 µM (K-562): 90.5%
activity at 10 µM (RXF 393): 96.6%
activity at 10 µM (A549/ATCC): 94.3%
activity at 10 µM (NCI-H522): 84.2%
